Assay [1] concerns the target T1, Ubiquitin-conjugating enzyme E2 N (Homo sapiens, UniProt P61088).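 Note: Dose-response confirmation in a TR-FRET assay detecting UBC13-driven polyubiquitin chain formation, inhibition measured.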
T1 sequence (P61088 whole entry): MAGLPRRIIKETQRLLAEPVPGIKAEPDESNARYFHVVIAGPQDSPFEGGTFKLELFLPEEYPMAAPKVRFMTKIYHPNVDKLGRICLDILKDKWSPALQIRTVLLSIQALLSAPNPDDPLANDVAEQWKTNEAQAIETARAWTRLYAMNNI
Type of assay: functional.

The target of assay [2] is T2, DNA repair protein RAD52 homolog (Homo sapiens, UniProt P43351).
T2 sequence (P43351 whole entry): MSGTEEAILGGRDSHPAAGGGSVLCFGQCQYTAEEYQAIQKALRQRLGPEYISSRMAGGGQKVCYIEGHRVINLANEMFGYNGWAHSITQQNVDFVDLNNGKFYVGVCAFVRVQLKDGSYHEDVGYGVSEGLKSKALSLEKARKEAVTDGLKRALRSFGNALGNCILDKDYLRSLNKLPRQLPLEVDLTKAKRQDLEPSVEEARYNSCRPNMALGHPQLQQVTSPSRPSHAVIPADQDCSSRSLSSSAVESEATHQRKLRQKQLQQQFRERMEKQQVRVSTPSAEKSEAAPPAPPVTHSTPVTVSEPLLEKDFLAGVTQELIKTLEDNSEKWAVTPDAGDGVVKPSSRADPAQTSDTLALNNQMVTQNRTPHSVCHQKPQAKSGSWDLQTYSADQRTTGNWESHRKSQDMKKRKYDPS
Type of assay: functional, biochemical.

For assay [3], the target named is Luciferin 4-monooxygenase (Photinus pyralis, UniProt P08659). The assay can be described thus: firefly luciferase enzyme inhibitors, dose response, biochemical, luminescence (AID 1891).
Luciferin 4-monooxygenase, sequence (P08659 whole entry): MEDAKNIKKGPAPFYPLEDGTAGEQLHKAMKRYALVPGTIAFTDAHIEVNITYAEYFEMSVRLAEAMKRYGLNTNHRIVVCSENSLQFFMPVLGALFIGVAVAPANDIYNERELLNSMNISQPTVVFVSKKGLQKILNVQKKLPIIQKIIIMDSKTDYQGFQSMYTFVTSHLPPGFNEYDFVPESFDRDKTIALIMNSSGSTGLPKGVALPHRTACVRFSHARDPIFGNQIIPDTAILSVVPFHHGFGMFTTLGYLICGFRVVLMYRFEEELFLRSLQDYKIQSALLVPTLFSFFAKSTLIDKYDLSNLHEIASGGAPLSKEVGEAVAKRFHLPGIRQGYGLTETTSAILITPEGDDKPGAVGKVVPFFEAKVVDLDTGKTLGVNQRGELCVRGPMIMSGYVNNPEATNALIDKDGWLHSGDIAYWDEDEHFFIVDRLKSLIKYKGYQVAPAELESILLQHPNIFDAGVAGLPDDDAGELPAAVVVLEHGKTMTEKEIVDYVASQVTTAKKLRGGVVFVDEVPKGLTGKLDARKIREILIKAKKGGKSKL
Assay [4] in a line: Luminescence Cell-Based Dose Confirmation HTS to Identify Inhibitors of Platelet Dense Granule Release. [Related pubchem assays: 1663 (Primary HTS), 1678 (Summary of Project)]. Type of assay: functional.
In assay [5] the target is FAD-linked sulfhydryl oxidase ALR (Homo sapiens, UniProt P55789). Nature of the assay: inhibitors of human ALR sulfhydryl oxidase, dose response, biochemical, H2O2 detection, luminescence, cherry-pick (AID 493248).
FAD-linked sulfhydryl oxidase ALR, sequence (P55789 whole entry): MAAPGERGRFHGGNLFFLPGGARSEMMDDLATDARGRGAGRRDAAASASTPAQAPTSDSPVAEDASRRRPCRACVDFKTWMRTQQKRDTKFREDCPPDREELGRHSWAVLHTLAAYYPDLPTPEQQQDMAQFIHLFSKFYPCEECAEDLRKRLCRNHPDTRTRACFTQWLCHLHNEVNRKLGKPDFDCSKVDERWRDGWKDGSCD
Assay [6] addresses T3, Methionyl-tRNA synthetase, putative (Trypanosoma brucei brucei, UniProt Q38C91).
T3 sequence (Q38C91 whole entry): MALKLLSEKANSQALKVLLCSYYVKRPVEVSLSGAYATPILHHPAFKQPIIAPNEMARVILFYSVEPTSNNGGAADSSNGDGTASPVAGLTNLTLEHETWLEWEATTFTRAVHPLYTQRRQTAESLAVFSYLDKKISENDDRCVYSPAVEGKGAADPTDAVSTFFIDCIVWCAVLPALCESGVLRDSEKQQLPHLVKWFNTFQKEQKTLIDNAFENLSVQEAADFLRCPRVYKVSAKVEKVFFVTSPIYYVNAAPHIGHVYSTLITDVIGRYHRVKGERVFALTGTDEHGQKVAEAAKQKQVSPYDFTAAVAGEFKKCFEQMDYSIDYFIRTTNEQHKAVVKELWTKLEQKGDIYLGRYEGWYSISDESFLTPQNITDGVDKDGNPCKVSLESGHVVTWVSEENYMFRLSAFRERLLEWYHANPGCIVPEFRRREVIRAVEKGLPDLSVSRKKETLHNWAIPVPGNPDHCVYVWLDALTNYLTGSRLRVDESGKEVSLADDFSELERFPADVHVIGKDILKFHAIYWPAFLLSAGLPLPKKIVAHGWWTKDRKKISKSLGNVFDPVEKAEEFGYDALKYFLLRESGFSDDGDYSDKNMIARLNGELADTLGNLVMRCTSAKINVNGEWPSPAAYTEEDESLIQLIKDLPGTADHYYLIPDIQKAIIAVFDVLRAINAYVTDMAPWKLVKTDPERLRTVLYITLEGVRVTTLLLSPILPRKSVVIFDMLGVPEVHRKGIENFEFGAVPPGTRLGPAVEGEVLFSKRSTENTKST
Type of assay: functional, Trypanosoma brucei brucei strain 927/4 GUTat10.1.

The nature of assay [7]: Counterscreen for inhibitors of Trypanosoma brucei methionyl tRNA synthetase (MetRS): Luminescence-based cell-based high throughput dose response assay to identify compounds that are cytotoxic to Jurkat human T lymphocyte cells. Type of assay: functional.
Assay [8] has as its target T3, Methionyl-tRNA synthetase, putative. Type of assay: functional, Trypanosoma brucei brucei strain 927/4 GUTat10.1. This is another data set of the same source.
For the next assay, the target named is T4, Caspase-3 (Homo sapiens, UniProt P42574).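 Note: Dose-response selectivity test against caspase-3 for candidate inhibitors of sentrin-specific proteases (SENPs).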
T4 sequence (P42574 whole entry): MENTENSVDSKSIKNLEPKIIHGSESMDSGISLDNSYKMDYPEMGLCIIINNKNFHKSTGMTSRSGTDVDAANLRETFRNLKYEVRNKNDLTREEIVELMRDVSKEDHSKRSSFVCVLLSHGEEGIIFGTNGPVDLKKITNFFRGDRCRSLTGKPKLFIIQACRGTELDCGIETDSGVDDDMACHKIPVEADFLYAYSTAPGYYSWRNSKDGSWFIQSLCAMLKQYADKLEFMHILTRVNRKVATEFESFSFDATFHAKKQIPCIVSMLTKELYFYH
Type of assay: functional.

In assay [9] the target is T5, Sentrin-specific protease 7 (Homo sapiens, UniProt Q9BQF6).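 Note: Luminescence-based dose-response confirmation of ultra-high-throughput screening hits, measuring inhibition of SENP7.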
T5 sequence (Q9BQF6 whole entry): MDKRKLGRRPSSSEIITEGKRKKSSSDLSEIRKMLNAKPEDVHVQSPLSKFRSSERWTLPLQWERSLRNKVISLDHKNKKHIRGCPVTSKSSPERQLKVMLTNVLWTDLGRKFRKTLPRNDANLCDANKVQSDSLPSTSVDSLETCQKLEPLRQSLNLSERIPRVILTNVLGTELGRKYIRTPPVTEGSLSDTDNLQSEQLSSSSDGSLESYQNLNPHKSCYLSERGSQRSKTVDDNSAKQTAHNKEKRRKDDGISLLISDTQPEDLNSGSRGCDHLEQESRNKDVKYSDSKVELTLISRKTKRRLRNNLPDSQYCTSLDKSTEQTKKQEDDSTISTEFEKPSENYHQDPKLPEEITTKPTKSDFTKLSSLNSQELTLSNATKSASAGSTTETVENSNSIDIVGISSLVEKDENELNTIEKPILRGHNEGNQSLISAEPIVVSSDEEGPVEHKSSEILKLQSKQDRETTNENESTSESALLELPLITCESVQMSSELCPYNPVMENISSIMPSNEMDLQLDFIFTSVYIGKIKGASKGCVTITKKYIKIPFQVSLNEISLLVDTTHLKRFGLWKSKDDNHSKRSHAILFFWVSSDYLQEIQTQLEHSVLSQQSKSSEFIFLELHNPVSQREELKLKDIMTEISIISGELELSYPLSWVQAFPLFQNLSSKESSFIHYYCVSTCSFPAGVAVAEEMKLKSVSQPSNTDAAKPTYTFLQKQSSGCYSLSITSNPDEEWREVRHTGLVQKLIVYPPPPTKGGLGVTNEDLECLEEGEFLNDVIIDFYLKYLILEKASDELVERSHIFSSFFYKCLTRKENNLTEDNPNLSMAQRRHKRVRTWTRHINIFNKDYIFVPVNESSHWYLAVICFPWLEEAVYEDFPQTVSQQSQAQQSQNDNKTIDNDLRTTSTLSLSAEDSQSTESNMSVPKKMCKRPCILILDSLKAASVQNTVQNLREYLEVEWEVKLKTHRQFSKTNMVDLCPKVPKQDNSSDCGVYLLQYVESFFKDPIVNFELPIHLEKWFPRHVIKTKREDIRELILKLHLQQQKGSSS
Type of assay: functional.

Assay [10] addresses T6, Sentrin-specific protease 6 (Homo sapiens, UniProt Q9GZR1).
T6 sequence (Q9GZR1 whole entry): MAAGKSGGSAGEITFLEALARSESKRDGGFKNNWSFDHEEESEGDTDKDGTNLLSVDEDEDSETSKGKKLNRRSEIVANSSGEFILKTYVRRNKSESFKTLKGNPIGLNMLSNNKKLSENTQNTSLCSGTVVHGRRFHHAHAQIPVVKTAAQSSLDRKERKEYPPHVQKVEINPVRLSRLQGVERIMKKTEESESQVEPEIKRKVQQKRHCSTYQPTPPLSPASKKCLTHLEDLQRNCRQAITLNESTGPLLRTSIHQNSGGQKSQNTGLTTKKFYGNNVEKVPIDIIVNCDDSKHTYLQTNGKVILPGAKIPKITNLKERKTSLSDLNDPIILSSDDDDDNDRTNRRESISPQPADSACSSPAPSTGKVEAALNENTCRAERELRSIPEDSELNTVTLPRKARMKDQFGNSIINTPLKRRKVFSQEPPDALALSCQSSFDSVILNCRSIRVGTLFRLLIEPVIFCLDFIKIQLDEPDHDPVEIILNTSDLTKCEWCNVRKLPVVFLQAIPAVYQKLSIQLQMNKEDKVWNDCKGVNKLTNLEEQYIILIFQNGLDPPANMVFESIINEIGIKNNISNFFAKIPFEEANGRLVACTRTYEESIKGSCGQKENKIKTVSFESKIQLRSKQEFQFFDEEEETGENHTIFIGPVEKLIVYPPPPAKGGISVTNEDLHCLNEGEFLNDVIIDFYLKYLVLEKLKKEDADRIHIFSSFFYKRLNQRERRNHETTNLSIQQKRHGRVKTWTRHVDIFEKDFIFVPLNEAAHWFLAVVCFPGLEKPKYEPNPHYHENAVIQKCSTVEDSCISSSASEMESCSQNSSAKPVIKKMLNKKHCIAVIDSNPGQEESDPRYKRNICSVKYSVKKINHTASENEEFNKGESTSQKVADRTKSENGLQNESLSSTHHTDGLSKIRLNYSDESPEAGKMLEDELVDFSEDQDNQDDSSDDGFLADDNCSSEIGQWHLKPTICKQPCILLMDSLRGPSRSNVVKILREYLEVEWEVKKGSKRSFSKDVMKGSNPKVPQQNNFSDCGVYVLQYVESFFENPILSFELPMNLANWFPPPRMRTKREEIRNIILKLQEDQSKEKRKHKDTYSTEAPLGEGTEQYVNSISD
Type of assay: functional.

Assay [11] has as its target T7, Sentrin-specific protease 8 (Homo sapiens, UniProt Q96LD8).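 Note: luminescence read-out of SENP8 inhibition, dose-response confirmation following an ultra-high-throughput screen.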
T7 sequence (Q96LD8 whole entry): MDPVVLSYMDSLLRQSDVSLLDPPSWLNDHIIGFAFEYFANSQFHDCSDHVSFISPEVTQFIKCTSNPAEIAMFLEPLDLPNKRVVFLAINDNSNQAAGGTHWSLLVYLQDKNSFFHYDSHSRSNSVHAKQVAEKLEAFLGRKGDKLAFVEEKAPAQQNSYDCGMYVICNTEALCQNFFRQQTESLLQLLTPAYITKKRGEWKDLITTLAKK
Type of assay: functional.

Assay [12] can be described thus: Luminescence Cell-Based Dose Response HTS to Identify Activators of Luciferase Translation or Activity in H4 […] Cells. [Related pubchem assays: 1829 (Project Summary), 1814 (Primary HTS)]. Type of assay: functional.
The test system of a further assay is H4. The assay can be described thus: Luminescence Cell-Based Dose Response HTS to Identify Activators of 5'UTR Stem-Loop Driven Prion Protein mRNA Translation in H4 Neuroglioblastoma Cells. [Related pubchem assays: 1829 (Project Summary), 1814 (Primary HTS)]. Type of assay: functional. To be noted: Homo sapiens.
Another assay addresses Paired box protein Pax-8 (Homo sapiens, UniProt Q06710). Nature of the assay: inhibitors of PAX8-driven TPO luciferase reporter, dose response, RMG-I cells, cherry-pick (AID 687027).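 Note: luciferase reporter driven by Pax8 target thyroperoxidase promoter measured by SteadyGlo luminescence.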 Type of assay: functional, cell-based.
Assay [13] is described as follows: cytotoxicity in OVCAR8 ovarian cancer cells, dose response, PAX8 project, cell-based, plate reader, dry powder samples (AID 743197). Type of assay: functional. To be noted: OVCAR-8.

SMILES strings stand for the structures. Activity calls are given as the source filed them.

Paired box protein Pax-8, sequence (Q06710 whole entry): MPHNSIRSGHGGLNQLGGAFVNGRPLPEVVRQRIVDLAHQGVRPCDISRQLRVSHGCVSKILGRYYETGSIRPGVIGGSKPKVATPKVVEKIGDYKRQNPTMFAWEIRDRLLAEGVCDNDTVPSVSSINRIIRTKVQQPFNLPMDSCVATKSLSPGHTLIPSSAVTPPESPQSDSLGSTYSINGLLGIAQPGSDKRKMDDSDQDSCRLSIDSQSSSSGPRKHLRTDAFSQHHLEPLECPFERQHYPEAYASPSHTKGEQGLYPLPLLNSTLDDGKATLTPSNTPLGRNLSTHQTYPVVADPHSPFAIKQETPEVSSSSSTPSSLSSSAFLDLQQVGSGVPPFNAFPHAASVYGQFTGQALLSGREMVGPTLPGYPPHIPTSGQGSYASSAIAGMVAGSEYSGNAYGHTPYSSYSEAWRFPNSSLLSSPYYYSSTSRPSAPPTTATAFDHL

Take `OCCN1CCN(CC/C=C2/c3ccccc3Sc3ccc(C(F)(F)F)cc32)CC1`: the IC50 in assay [1] was > 20 µM (inactive). The AC50 in [2] was 21.2 µM (active).
As for `C/C(=C1/SC(=S)N(CCC(=O)O)C1=O)c1ccc(O)cc1`, the EC50 in assay [3] and in assay [4] was > 112 µM (not active) throughout. The AC50 in assay [5] was 4.14 µM (active). In addition, the IC50 was 16.6 µM (inactive) in assay [6], 83.3 µM (inactive) in [7] and 9.47 µM (active) in assay [8].
`Oc1ccccc1-c1csc(-c2ccccc2)n1`: the IC50 is 16.2 µM (active) at Caspase-3, 3.44 µM (active) in [9], 7.62 µM (active) in [10] and 10.7 µM (active) in assay [11].
As to `CCOC(=O)c1sc(Nc2ccccc2Cl)nc1C`, the results for the EC50 (in assay [12]; in the assay with H4) were 1.18 µM (active) and 43.9 µM (active), respectively. Moreover, the IC50 at Caspase-3 is 26.6 µM (active); in assay [9], 8.78 µM (active); in assay [10], 19.8 µM (active); in assay [11], 20.3 µM (active).
For `Cc1ccccc1C(=O)Oc1ccc2ccc(O)cc2c1`, the IC50 on Caspase-3 was 35.4 µM (active); in assay [9], 4.59 µM (active); in [10] it was 10.4 µM (active); in [11], 12.1 µM (active).
Consider `Cc1ccc(NC(=O)c2ccc3c(c2)OCO3)cc1Cl`, for which the IC50 is 14 µM (active) on Caspase-3, 4.44 µM (active) in [9], 5.35 µM (active) in assay [10] and > 100 µM (inactive) in assay [11].
Regarding `CC(C)(Oc1ccc(Cl)cc1)C(=O)OCc1nc(O)c2sccc2n1`, the IC50 in assay [7] is 83.3 µM (inactive).
On to `CC(C)(Oc1ccc(Cl)cc1)C(=O)OCc1nc2ccsc2c(=O)[nH]1`, for which the IC50 in [6] was 21.6 µM (inactive); in assay [8], 9.89 µM (active).
Take `CC(C)C[C@@H]1CN=C(N)N1C[C@@H]1CCCN1C[C@@H](C(C)C)N1C[C@@H](Cc2ccccc2)N(CCc2ccc(Cl)c(Cl)c2)C1=N`: the AC50 in assay [2] is 16.7 µM (active).
In the case of `O=C(NCc1cc(Cl)cc(Cl)c1)c1ccc2[nH]c([C@H]3C[C@H](O)[C@@H](CO)O3)nc2c1`, the IC50 in [6] was 23.8 µM (inactive); in assay [7] it was 83.3 µM (inactive); in assay [8], 13.5 µM (inactive).
As to `COc1ccc(NC(=O)Nc2ccc3c(c2)C(=O)N([C@@H](C)CO)C[C@@H](C)[C@@H](CN(C)Cc2ccc(Cl)c(Cl)c2)OCCCC[C@@H](C)O3)cc1`, the AC50 on Paired box protein Pax-8 was 14.1 µM (active); in [13], 65.4 µM (active).

Source of the values: ChEMBL document CHEMBL1201862, “PubChem BioAssay data set” (2004).
